Test results from patent US8741934B2, “Inhibitors of ion channels” (Pfizer Limited, priority 2007, dated 2014).

target: T1, hSCN3A sodium channels (Homo sapiens, UniProt Q9NY46); assay: hSCN3A electrophysiology, whole-cell patch-clamp or PatchXpress 7000, estimated IC-50 (Table B); assay type: cell-based; conditions: estimated IC-50; hSCN3A cells, whole-cell patch-clamp or PatchXpress 7000; read-out: SCN3A EIC-50
T1 construct: expressed in transfected cells
Protocol: Human Embryonic Kidney (HEK) cells were transfected with an hSCN3A construct using lipofectamine reagent (Invitrogen), using standard techniques. […] Clones were screened for expression using the whole-cell voltage-clamp technique.
HEK cells stably transfected with hSCN3A were maintained in DMEM medium supplemented with 10% heat-inactivated fetal bovine serum and 400 μg/ml G418 sulfate in an incubator at 37° C. with a humidified atmosphere of 10% CO2. […] For electrophysiological studies, cells were removed from the culture flask by brief trypsinization and replated at low density onto glass cover slips. Cells were typically used for electrophysiological experiments within 24 to 72 h after plating.
All recordings were made at room temperature (22-24° C.) using AXOPATCH 200B amplifiers and PCLAMP software (Axon Instruments, Burlingame, Calif.) or PatchXpress 7000 hardware and associated software (Axon Instruments, Burlingame, Calif.).
Current records were acquired at 20 to 50 KHz and filtered at 5 to 10 KHz.
HEK cells stably transfected with hSCN3A were viewed under Hoffman contrast optics and placed in front of an array of flow pipes emitting either control or compound-containing extracellular solutions. All compounds were dissolved in dimethyl sulfoxide to make 10 mM stock solutions, which were then diluted into extracellular solution to attain the final concentrations desired.
The voltage-dependence of inactivation was determined by applying a series of depolarizing prepulses (8 sec long in 10 mV increments) from a negative holding potential. The voltage was then immediately stepped to 0 mV to assess the magnitude of the sodium current. Currents elicited at 0 mV were plotted as a function of prepulse potential to allow estimation of the voltage midpoint of inactivation (V1/2). Cells were then voltage clamped at the empirically determined V1/2.
Compounds were tested for their ability to inhibit hSCN3A sodium channels by activating the channel with a 20 msec voltage step to 0 mV following an 8 second conditioning prepulse to the empirically determined V1/2 (Table B). Compound effect (% inhibition) was determined by difference in current amplitude before and after application of test compounds. […] Inhibition values <20% and >80% were excluded from the calculation.
In some cases electrophysiological assays were conducted with PatchXpress 7000 hardware and associated software (Molecular Devices Corp) (Table B). All assay buffers and solutions were identical to those used in conventional whole-cell voltage clamp experiments described above. hSCN3A cells were grown as above to 50%-80% confluency and harvested by trypsinization. Trypsinized cells were washed and resuspended in extracellular buffer at a concentration of 1×10^6 cells/ml. The onboard liquid handling facility of the PatchXpress was used for dispensing cells and application of test compounds. Determination of the voltage midpoint of inactivation was as described for conventional whole-cell recordings. Cells were then voltage-clamped to the empirically determined V1/2 and current was activated by a 20 msec voltage step to 0 mV.

T1 sequence (Q9NY46 whole entry): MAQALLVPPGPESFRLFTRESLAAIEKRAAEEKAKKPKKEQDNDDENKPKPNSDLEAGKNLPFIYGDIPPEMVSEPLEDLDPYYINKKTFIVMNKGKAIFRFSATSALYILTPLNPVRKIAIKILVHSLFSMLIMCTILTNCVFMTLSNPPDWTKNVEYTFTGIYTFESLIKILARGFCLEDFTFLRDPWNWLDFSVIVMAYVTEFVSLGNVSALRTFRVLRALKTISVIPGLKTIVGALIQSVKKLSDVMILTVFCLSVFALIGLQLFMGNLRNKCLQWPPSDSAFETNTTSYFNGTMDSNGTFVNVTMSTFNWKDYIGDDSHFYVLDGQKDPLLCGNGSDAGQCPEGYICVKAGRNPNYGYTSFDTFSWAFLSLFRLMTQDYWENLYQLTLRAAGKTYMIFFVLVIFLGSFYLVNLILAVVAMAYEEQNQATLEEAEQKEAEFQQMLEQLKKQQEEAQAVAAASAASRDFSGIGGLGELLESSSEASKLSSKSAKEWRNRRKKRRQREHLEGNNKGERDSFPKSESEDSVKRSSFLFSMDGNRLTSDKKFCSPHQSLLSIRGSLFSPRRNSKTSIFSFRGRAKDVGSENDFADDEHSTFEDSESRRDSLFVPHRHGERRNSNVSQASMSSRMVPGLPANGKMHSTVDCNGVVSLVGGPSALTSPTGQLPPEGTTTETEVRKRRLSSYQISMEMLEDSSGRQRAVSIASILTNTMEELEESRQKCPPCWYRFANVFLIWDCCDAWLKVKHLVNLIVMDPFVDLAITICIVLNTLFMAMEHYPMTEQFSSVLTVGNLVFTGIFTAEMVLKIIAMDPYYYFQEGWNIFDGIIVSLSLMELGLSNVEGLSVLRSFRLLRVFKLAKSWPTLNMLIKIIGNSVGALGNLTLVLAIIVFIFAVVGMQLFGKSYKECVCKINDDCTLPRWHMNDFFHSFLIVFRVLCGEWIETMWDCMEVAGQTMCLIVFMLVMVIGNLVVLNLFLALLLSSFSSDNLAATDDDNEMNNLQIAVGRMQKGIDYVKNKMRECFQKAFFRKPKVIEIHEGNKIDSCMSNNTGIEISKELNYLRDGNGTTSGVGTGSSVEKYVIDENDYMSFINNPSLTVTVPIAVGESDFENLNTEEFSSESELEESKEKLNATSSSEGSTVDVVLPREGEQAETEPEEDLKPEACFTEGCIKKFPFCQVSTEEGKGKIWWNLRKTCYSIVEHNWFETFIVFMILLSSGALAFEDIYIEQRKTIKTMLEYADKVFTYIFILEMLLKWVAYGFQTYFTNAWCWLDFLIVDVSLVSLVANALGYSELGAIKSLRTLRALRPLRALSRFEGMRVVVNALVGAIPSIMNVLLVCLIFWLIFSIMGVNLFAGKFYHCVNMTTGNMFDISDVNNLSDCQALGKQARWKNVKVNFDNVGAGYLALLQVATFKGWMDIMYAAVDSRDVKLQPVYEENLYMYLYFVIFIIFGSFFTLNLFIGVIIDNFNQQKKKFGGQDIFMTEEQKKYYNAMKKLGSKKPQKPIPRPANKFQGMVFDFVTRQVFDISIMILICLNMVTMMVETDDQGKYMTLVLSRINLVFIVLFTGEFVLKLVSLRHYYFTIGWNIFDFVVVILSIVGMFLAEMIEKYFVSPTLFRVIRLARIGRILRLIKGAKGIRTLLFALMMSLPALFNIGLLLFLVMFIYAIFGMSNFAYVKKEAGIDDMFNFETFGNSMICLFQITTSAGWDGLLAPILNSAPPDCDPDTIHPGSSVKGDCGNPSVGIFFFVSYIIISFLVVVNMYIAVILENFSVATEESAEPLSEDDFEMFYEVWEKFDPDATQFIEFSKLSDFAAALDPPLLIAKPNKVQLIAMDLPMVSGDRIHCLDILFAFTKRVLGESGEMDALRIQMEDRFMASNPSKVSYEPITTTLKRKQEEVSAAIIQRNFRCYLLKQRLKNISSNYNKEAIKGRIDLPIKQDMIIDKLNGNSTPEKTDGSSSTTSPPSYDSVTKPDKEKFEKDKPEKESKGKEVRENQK

Compound | IC50
O=C(NCc1ccc(C(F)(F)F)cc1)c1ccc(S(=O)(=O)Nc2ccon2)cc1 [Example 7, 4-[(Isoxazol-3-ylamino)sulfonyl]-N-[4-(trifluoromethyl)benzyl]benzamide] | 5870 nM
O=C(NC1(c2ccc(Cl)cc2)CC1)c1ccc(S(=O)(=O)Nc2nccs2)cc1 [Example 139, N-[1-(4-chlorophenyl)cyclopropyl]-4-[(1,3-thiazol-2-ylamino)sulfonyl]benzamide] | 1660 nM
O=C(NCc1ccc(C(F)(F)F)cc1)c1ccc(S(=O)(=O)Nc2nccs2)c(Cl)c1 [Example 287, 3-Chloro-4-[(1,3-thiazol-2-ylamino)sulfonyl]-N-[4-(trifluoromethyl)benzyl]benzamide] | 220 nM
O=C(NCc1ccc(F)c(OC(F)(F)F)c1)c1ccc(S(=O)(=O)Nc2ncc(Cl)s2)cc1 [Example 32, 4-{[(5-Chloro-1,3-thiazol-2-yl)amino]sulfonyl}-N-[4-fluoro-3-(trifluoromethoxy)benzyl]benzamide] | 70 nM
O=C(NCCc1cccc(F)c1)c1ccc(S(=O)(=O)Nc2nccs2)cc1 [Example 75, N-[2-(3-fluorophenyl)ethyl]-4-[(1,3-thiazol-2-ylamino)sulfonyl]benzamide] | > 300 nM
O=C(NCc1ccc(F)c(Cl)c1)c1ccc(S(=O)(=O)Nc2nccs2)cc1F [Example 332, N-(3-chloro-4-fluorobenzyl)-2-fluoro-4-[(1,3-thiazol-2-ylamino)sulfonyl] benzamide] | 380 nM
O=C(NCc1ccc(Cl)c(Cl)c1)c1ccc(S(=O)(=O)Nc2nccs2)cc1 [Example 388, N-(3,4-dichlorobenzyl)-4-[(1,3-thiazol-2-ylamino)sulfonyl]benzamide] | 110 nM
O=C(NCc1cccc(OC(F)(F)F)c1)c1ccc(S(=O)(=O)Nc2nccs2)c(F)c1 [Example 296, 3-Fluoro-4-[(1,3-thiazol-2-ylamino)sulfonyl]-N-[3-(trifluoromethoxy)benzyl]benzamide] | 190 nM
O=C(NCc1ccc(F)c(F)c1)c1ccc(S(=O)(=O)Nc2ncc(Cl)s2)cc1 [Example 33, 4-{[(5-Chloro-1,3-thiazol-2-yl)amino]sulfonyl}-N-(3,4-difluorobenzyl)benzamide] | 150 nM
O=C(NCc1ccc(F)c(C(F)(F)F)c1)c1ccc(S(=O)(=O)Nc2nccs2)cc1F [Example 336, 2-Fluoro-N-[4-fluoro-3-(trifluoromethyl)benzyl]-4-[(1,3-thiazol-2-ylamino)sulfonyl] benzamide] | 240 nM
O=C(NCc1ccccc1OC(F)(F)F)c1ccc(S(=O)(=O)Nc2nccs2)cc1 [Example 78, 4-[(1,3-Thiazol-2-ylamino)sulfonyl]-N-[2-(trifluoromethoxy)benzyl]benzamide] | 1630 nM
O=C(NCc1ccc(F)c(F)c1)c1ccc(S(=O)(=O)Nc2nccs2)c(F)c1 [Example 298, N-(3,4-difluorobenzyl)-3-fluoro-4-[(1,3-thiazol-2-ylamino)sulfonyl]benzamide] | 160 nM
O=C(NCc1ccc(F)cc1)c1ccc(S(=O)(=O)Nc2nccs2)cc1 [Example 92, N-(4-fluorobenzyl)-4-[(1,3-thiazol-2-ylamino)sulfonyl]benzamide] | 580 nM
O=C(NCc1cccc(OC(F)F)c1)c1ccc(S(=O)(=O)Nc2nccs2)cc1 [Example 63, N-[3-(difluoromethoxy)benzyl]-4-[(1,3-thiazol-2-ylamino)sulfonyl]benzamide] | 1090 nM
O=C(NCc1ccc(C(F)(F)F)c(F)c1)c1ccc(S(=O)(=O)Nc2ncns2)c(F)c1 [Example 319, 3-Fluoro-N-[3-fluoro-4-(trifluoromethyl)benzyl]-4-[(1,2,4-thiadiazol-5-ylamino)sulfonyl]benzamide] | 70 nM
O=C(NCc1ccc(C(F)(F)F)c(Cl)c1)c1ccc(S(=O)(=O)Nc2nccs2)c(F)c1 [Example 306, N-[3-chloro-4-(trifluoromethyl)benzyl]-3-fluoro-4-[(1,3-thiazol-2-ylamino)sulfonyl]benzamide] | 40 nM

Compound | IC50
O=C(NCc1ccc(C(F)(F)F)cc1)c1ccc(S(=O)(=O)Nc2nccs2)cn1 [Example 342, 5-[(1,3-Thiazol-2-ylamino)sulfonyl]-N-[4-(trifluoromethyl)benzyl] pyridine-2-carboxamide] | 510 nM
O=C(NCc1ccc(Cl)c(F)c1)c1ccc(S(=O)(=O)Nc2ncc(Cl)s2)cc1 [Example 37, N-(4-Chloro-3-fluorobenzyl)-4-{[(5-chloro-1,3-thiazol-2-yl)amino]sulfonyl}benzamide] | 70 nM
O=C(NCc1ccc(C(F)(F)F)c(F)c1)c1ccc(S(=O)(=O)Nc2nccs2)c(Cl)c1 [Example 289, 3-Chloro-N-[3-fluoro-4-(trifluoromethyl)benzyl]-4-[(1,3-thiazol-2-yl-amino)sulfonyl]benzamide] | 340 nM
Cc1cc(NC(=O)c2ccc(S(=O)(=O)Nc3nccs3)cc2)n(-c2ccccc2)n1 [Example 307, N-(3-methyl-1-phenyl-1H-pyrazol-5-yl)-4-[(1,3-thiazol-2-ylamino)sulfonyl]benzamide] | 23700 nM
O=C(c1ccc(S(=O)(=O)Nc2nccs2)cc1)N1CCOC(COc2ccc(F)cc2Cl)C1 (stereo not drawn) [Example 266, 4-({2-[(2-Chloro-4-fluorophenoxy)methyl]morpholin-4-yl}carbonyl)-N-1,3-thiazol-2-ylbenzenesulfonamide] | 1670 nM
Cc1ccc(CNC(=O)c2ccc(S(=O)(=O)Nc3nccs3)cc2)cc1F [Example 62, N-(3-fluoro-4-methylbenzyl)-4-[(1,3-thiazol-2-ylamino)sulfonyl]benzamide] | 1020 nM
COc1ccc(CNC(=O)c2ccc(S(=O)(=O)Nc3nccs3)cc2)cc1Cl [Example 405, N-(3-chloro-4-methoxybenzyl)-4-[(1,3-thiazol-2-ylamino)sulfonyl] benzamide] | 60 nM
O=C(NCc1ccc(F)c(OC(F)(F)F)c1)c1ccc(S(=O)(=O)Nc2nccs2)c(Cl)c1 [Example 293, 3-Chloro-N-[4-fluoro-3-(trifluoromethoxy)benzyl]-4-[(1,3-thiazol-2-yl-amino)sulfonyl]benzamide] | 2320 nM
O=C(NCc1ccc(C(F)(F)F)cc1)c1ccc(S(=O)(=O)Nc2nccs2)nc1 [Example 417, 6-[(1,3-Thiazol-2-ylamino)sulfonyl]-N-[4-(trifluoromethyl)benzyl]nicotinamide] | 210 nM
O=C(NCc1cccc(C(F)(F)F)c1F)c1ccc(S(=O)(=O)Nc2ncc(Cl)s2)cc1 [Example 40, 4-{[(5-Chloro-1,3-thiazol-2-yl)amino]sulfonyl}-N-[2-fluoro-3-(trifluoromethyl)benzyl]benzamide] | 210 nM
O=C(NCc1ccc(F)cc1Cl)c1ccc(S(=O)(=O)Nc2nccs2)cc1 [Example 95, N-(2-chloro-4-fluorobenzyl)-4-[(1,3-thiazol-2-ylamino)sulfonyl]benzamide] | > 100 nM
O=C(c1ccc(S(=O)(=O)Nc2nccs2)cc1)N1CCCCC1c1ccccc1 (stereo not drawn) [Example 239, 4-[(2-Phenylpiperidin-1-yl)carbonyl]-N-1,3-thiazol-2-yl-benzenesulfonamide] | 2970 nM
CC(C)(C)c1ccc(CNC(=O)c2ccc(S(=O)(=O)Nc3nccs3)cc2)cc1 [Example 387, N-(4-tert-butylbenzyl)-4-[(1,3-thiazol-2-ylamino)sulfonyl]benzamide] | 170 nM
O=C(Nc1ccc2c(n1)CCC2)c1ccc(S(=O)(=O)Nc2nccs2)cc1 [Example 172, N-(6,7-dihydro-5H-cyclopenta[b]pyridin-2-yl)-4-[(1,3-thiazol-2-ylamino)sulfonyl]benzamide] | 6520 nM
O=C(NCc1ccc(F)c(Cl)c1)c1ccc(S(=O)(=O)Nc2ncc(Cl)s2)c(Cl)c1 [Example 363, 3-Chloro-N-(3-chloro-4-fluorobenzyl)-4-{[(5-chloro-1,3-thiazol-2-yl)amino]sulfonyl} benzamide] | 1200 nM
CC(NC(=O)c1ccc(S(=O)(=O)Nc2nccs2)cc1)c1ccc(C(F)(F)F)cc1 (stereo not drawn) [Example 118, 4-[(1,3-Thiazol-2-ylamino)sulfonyl]-N-{1-[4-(trifluoromethyl)phenyl]ethyl}benzamide] | 760 nM

same assay, conditions: read-out: SCN3A EIC-50

Compound | IC50
O=C(NCc1ccc(C(F)(F)F)c(Cl)c1)c1ccc(S(=O)(=O)Nc2nccs2)cn1 [Example 341, N-[3-chloro-4-(trifluoromethyl)benzyl]-5-[(1,3-thiazol-2-ylamino)sulfonyl] pyridine-2-carboxamide] | 190 nM
